Reference: US10618918B2, “Substituted boronic acids as antimicrobials” (priority 2015, dated 2020)
Like-named read-outs stand apart in the source and are kept apart here.

Key:
[1] = system: KP1004 KPC-2; assay: Biapenem potentiation (MPC@1), strain KP1004 KPC-2; format: cell-based; conditions: minimum BLI concentration inhibiting growth with biapenem 1 μg/mL; tested up to 40 μg/mL
Description: (§1) Biapenem was present in the test medium at 1 μg/mL. […] Table 3 summarizes the BLI potency of biapenem potentiation (MPC@1) for two strains overexpressing class A (KPC) and class D (OXA-48) carbapenemases. Biapenem MIC for each strain is also shown.

[2] = system: KP1086 OXA-48; assay: Biapenem potentiation (MPC@1), strain KP1086 OXA-48; format: cell-based; conditions: minimum BLI concentration inhibiting growth with biapenem 1 μg/mL; tested up to 40 μg/mL
Description: as §1

[3] = molecular target: purified class A, C and D enzymes (β-lactamases) (Escherichia coli, UniProt Q9L5C7); assay: biochemical; format: biochemical
[4] = molecular target: purified class A, C and D enzymes (β-lactamases) (Klebsiella pneumoniae, UniProt Q6XEC0); assay: biochemical; format: biochemical
[5] = molecular target: purified class A, C and D enzymes (β-lactamases) (Klebsiella pneumoniae, UniProt Q9F663); assay: biochemical; format: biochemical
[6] = system: ECL1002; assay: Aztreonam potentiation (MPC@4), strain ECL1002; conditions: minimum BLI concentration inhibiting growth with aztreonam 4 μg/mL; tested up to 40 μg/mL
[7] = system: ec308 SHV-5; assay: Aztreonam potentiation (MPC@4), strain ec308 SHV-5; conditions: minimum BLI concentration inhibiting growth with aztreonam 4 μg/mL; tested up to 40 μg/mL
[8] = system: ec302 TEM-10; assay: Aztreonam potentiation (MPC@4), strain ec302 TEM-10; conditions: minimum BLI concentration inhibiting growth with aztreonam 4 μg/mL; tested up to 40 μg/mL
[9] = system: KP1004 KPC-2; assay: Aztreonam potentiation (MPC@4), strain KP1004 KPC-2; conditions: minimum BLI concentration inhibiting growth with aztreonam 4 μg/mL; tested up to 40 μg/mL
[10] = system: EC1010 CMY-6; assay: Aztreonam potentiation (MPC@4), strain EC1010 CMY-6; conditions: minimum BLI concentration inhibiting growth with aztreonam 4 μg/mL; tested up to 40 μg/mL
[11] = system: KP1010 SHV-12; assay: Aztreonam potentiation (MPC@4), strain KP1010 SHV-12; conditions: minimum BLI concentration inhibiting growth with aztreonam 4 μg/mL; tested up to 40 μg/mL
[12] = system: KP1009 CTX-M-15; assay: Aztreonam potentiation (MPC@4), strain KP1009 CTX-M-15; conditions: minimum BLI concentration inhibiting growth with aztreonam 4 μg/mL; tested up to 40 μg/mL
[13] = system: KP1005 CTX-M-14; assay: Tigemonam potentiation (MPC@4), strain KP1005 CTX-M-14; conditions: minimum BLI concentration inhibiting growth with tigemonam 4 μg/mL; tested up to 40 μg/mL
[14] = system: AB1053 OXA-72; assay: Meropenem potentiation (MPC@8), strain AB1053 OXA-72; format: cell-based, Acinetobacter baumannii; conditions: minimum BLI concentration inhibiting growth with meropenem 8 μg/mL; tested up to 20 μg/mL
[15] = system: AB1054 OXA-23; assay: Meropenem potentiation (MPC@8), strain AB1054 OXA-23; format: cell-based, Acinetobacter baumannii; conditions: minimum BLI concentration inhibiting growth with meropenem 8 μg/mL; tested up to 20 μg/mL
[16] = molecular target: T1, purified class A, C and D enzymes (β-lactamases) (Acinetobacter baumannii, UniProt Q9L4P2); assay: biochemical; format: biochemical; conditions: purified OXA-23; nitrocefin (NCF) as reporter substrate
T1 construct: rows headed: Ki (OXA-23, NCF), uM; other: purified OXA-23; nitrocefin (NCF) as reporter substrate

[17] = molecular target: purified class A, C and D enzymes (β-lactamases) (Enterobacter cloacae, UniProt P05364); assay: biochemical; format: biochemical
[18] = molecular target: T2, purified class A, C and D enzymes (β-lactamases) (Pseudomonas aeruginosa, UniProt P24735); assay: biochemical; format: biochemical
T2 construct: rows headed: Ki (Pa-AmpC, NCF), uM; other: purified Pa-AmpC; nitrocefin (NCF) as reporter substrate

[19] = purified P99, nitrocefin (NCF) as reporter substrate
[20] = purified OXA-48, nitrocefin (NCF) as reporter substrate
[21] = purified KPC-2, nitrocefin (NCF) as reporter substrate
[22] = purified Pa-AmpC, nitrocefin (NCF) as reporter substrate, read-out: Ki (Pa-AmpC, NCF)

T2 sequence (P24735 whole entry): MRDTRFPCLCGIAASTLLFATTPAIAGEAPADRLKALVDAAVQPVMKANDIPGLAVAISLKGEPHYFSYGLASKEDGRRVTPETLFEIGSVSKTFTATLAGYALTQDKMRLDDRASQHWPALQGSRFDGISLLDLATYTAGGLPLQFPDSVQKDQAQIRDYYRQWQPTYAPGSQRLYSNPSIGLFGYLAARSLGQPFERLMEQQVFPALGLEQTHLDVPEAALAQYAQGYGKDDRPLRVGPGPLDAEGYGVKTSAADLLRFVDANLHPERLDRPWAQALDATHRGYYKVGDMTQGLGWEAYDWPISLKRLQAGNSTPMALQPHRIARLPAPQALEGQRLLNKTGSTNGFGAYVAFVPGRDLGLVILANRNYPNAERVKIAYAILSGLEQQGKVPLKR
T1 sequence (Q9L4P2 whole entry): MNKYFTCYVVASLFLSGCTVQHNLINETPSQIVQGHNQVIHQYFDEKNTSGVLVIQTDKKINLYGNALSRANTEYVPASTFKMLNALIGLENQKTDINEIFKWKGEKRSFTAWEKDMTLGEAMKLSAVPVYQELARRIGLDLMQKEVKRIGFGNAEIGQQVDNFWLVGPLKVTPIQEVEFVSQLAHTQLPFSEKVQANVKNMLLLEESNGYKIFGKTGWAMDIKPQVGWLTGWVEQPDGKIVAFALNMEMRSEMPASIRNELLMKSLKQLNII
Sequence of purified class A, C and D enzymes (β-lactamases) (Enterobacter cloacae, UniProt P05364) (P05364 21-381): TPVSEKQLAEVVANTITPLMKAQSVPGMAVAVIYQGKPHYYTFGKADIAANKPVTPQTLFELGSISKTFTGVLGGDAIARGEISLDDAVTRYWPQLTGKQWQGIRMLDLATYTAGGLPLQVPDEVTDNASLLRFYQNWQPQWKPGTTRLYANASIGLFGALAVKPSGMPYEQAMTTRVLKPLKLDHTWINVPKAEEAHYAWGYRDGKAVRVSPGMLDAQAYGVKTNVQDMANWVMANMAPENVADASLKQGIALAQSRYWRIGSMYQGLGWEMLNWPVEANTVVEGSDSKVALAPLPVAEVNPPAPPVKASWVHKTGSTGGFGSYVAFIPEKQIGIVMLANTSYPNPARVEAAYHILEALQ
Sequence of purified class A, C and D enzymes (β-lactamases) (Escherichia coli, UniProt Q9L5C7) (Q9L5C7 entry or part of it): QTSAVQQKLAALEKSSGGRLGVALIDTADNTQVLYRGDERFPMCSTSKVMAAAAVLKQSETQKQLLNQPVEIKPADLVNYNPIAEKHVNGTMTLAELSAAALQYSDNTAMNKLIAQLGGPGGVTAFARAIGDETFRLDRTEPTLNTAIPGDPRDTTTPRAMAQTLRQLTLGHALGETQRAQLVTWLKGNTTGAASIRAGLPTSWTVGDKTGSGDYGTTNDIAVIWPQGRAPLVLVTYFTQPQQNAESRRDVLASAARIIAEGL

Row | SMILES | BPM MPC1 KP1004 KPC-2 [1] | BPM MPC1 OXA-48 KP1086 [2] | AZT MPC4 ECL1002 [6] | AZT MPC4 SHV-5 ec308 [7] | AZT MPC4 TEM-10 ec302 [8] | AZT MPC4 KPC-2 KP1004 [9] | AZT MPC4 CMY-6 EC1010 [10] | AZT MPC4 SHV-12 KP1010 [11] | AZT MPC4 CTX-M-15 KP1009 [12] | TIG MPC4 CTX-M-14 KP1005 [13] | MPM MPC8 AB1053 OXA-72 [14] | MPM MPC8 AB1054 OXA-23 [15] | Ki [16] | Ki (P99, NCF), uM [17, 19] | Ki (OXA-48, NCF), uM [4, 20] | Ki (KPC-2, NCF), uM [5, 21] | Ki [18, 22] | Ki (P99, NCF), uM [17] | Ki [18] | other results
1 | O=C(O)[C@H]1/C(=C/CO)O[C@@H]2CC(=O)N21 [Clavulanic Acid, reference compound] | Y (Y = 5 μg/mL < MPC@1 ≤ 20 μg/mL) | Z (Z = MPC@1 > 20 μg/mL) | Z (Z = MPC@4 > 20 μg/mL) | X (X = MPC@4 ≤ 5 μg/mL) | X (X = MPC@4 ≤ 5 μg/mL) | Z (Z = MPC@4 > 20 μg/mL) | Z (Z = MPC@4 > 20 μg/mL) | X (X = MPC@4 ≤ 5 μg/mL) | X (X = MPC@4 ≤ 5 μg/mL) | X (X = MPC@4 ≤ 5 μg/mL) |  |  |  |  |  |  |  |  |  | Ki (CTX-M-14, NCF), uM [3]: X (key: X = Ki ≤ 0.1 μM; Y = 0.1 μM < Ki ≤ 1 μM; Z = Ki > 1 μM); Ki (OXA-48, NCF), uM [4]: Z (key: X = Ki ≤ 0.1 μM; Y = 0.1 μM < Ki ≤ 1 μM; Z = Ki > 1 μM); Ki (KPC-2, NCF), uM [5]: Z (key: X = Ki ≤ 0.1 μM; Y = 0.1 μM < Ki ≤ 1 μM; Z = Ki > 1 μM)
2 | N#CCOc1ccc2c(c1C(=O)O)OB(O)CC2 [Compound 47, 7-(Cyanomethoxy)-2-hydroxy-3,4-dihydro-1,2-benzoxaborinine-8-carboxylic acid] | X (X = MPC@1 ≤ 5 μg/mL) | X (X = MPC@1 ≤ 5 μg/mL) | X (X = MPC@4 ≤ 5 μg/mL) | X (X = MPC@4 ≤ 5 μg/mL) | X (X = MPC@4 ≤ 5 μg/mL) | X (X = MPC@4 ≤ 5 μg/mL) | X (X = MPC@4 ≤ 5 μg/mL) | X (X = MPC@4 ≤ 5 μg/mL) | X (X = MPC@4 ≤ 5 μg/mL) | X (X = MPC@4 ≤ 5 μg/mL) | X (X = MPC@1 ≤ 5 μg/mL) | X (X = MPC@1 ≤ 5 μg/mL) | < 0.1 µM | X (X = Ki ≤ 0.1 μM) | X (X = Ki ≤ 0.1 μM) | X (X = Ki ≤ 0.1 μM) | < 0.1 µM |  |  | 
3 | O=C(O)c1c(OCC2OCCO2)ccc2c1OB(O)CC2 [Compound 26, 7-(1,3-Dioxolan-2-ylmethoxy)-2-hydroxy-3,4-dihydro-1,2-benzoxaborinine-8-carboxylic acid] | X (X = MPC@1 ≤ 5 μg/mL) | X (X = MPC@1 ≤ 5 μg/mL) | X (X = MPC@4 ≤ 5 μg/mL) | Y (Y = 5 μg/mL < MPC@4 ≤ 20 μg/mL) | Y (Y = 5 μg/mL < MPC@4 ≤ 20 μg/mL) | X (X = MPC@4 ≤ 5 μg/mL) | X (X = MPC@4 ≤ 5 μg/mL) | X (X = MPC@4 ≤ 5 μg/mL) | Y (Y = 5 μg/mL < MPC@4 ≤ 20 μg/mL) | Z (Z = MPC@4 > 20 μg/mL) | X (X = MPC@1 ≤ 5 μg/mL) | Y (Y = 5 μg/mL < MPC@1 ≤ 20 μg/mL) | < 0.1 µM | X (X = Ki ≤ 0.1 μM) | X (X = Ki ≤ 0.1 μM) | X (X = Ki ≤ 0.1 μM) | < 0.1 µM |  |  | 
4 | O=C([O-])c1cc(F)cc2c1O[B-](O)(O)CC2.[Na+].[Na+] [Compound 37, Disodium; 9-fluoro-4,4-dihydroxy-5-oxa-4-boranuidabicyclo[4.4.0]deca-1(6),7,9-triene-7-carboxylate] | X (X = MPC@1 ≤ 5 μg/mL) | X (X = MPC@1 ≤ 5 μg/mL) | Y (Y = 5 μg/mL < MPC@4 ≤ 20 μg/mL) | Y (Y = 5 μg/mL < MPC@4 ≤ 20 μg/mL) | Y (Y = 5 μg/mL < MPC@4 ≤ 20 μg/mL) | X (X = MPC@4 ≤ 5 μg/mL) | X (X = MPC@4 ≤ 5 μg/mL) | X (X = MPC@4 ≤ 5 μg/mL) | Y (Y = 5 μg/mL < MPC@4 ≤ 20 μg/mL) | Z (Z = MPC@4 > 20 μg/mL) | Z (Z = MPC@1 > 20 μg/mL) | Z (Z = MPC@1 > 20 μg/mL) | < 0.1 µM |  | X (X = Ki ≤ 0.1 μM) | X (X = Ki ≤ 0.1 μM) |  | X (key: X = Ki ≤ 0.1 μM; Y = 0.1 μM < Ki ≤ 1 μM; Z = Ki > 1 μM) | < 0.1 µM | 
5 | O=C(O)c1c(OC(CO)CO)ccc2c1OB(O)CC2 [Compound 44, 2-hydroxy-7-[2-hydroxy-1-(hydroxymethyl)ethoxy]-3,4-dihydro-1,2-benzoxaborinine-8-carboxylic acid] | X (X = MPC@1 ≤ 5 μg/mL) | X (X = MPC@1 ≤ 5 μg/mL) | Y (Y = 5 μg/mL < MPC@4 ≤ 20 μg/mL) | Y (Y = 5 μg/mL < MPC@4 ≤ 20 μg/mL) | Y (Y = 5 μg/mL < MPC@4 ≤ 20 μg/mL) | X (X = MPC@4 ≤ 5 μg/mL) | X (X = MPC@4 ≤ 5 μg/mL) | X (X = MPC@4 ≤ 5 μg/mL) | Y (Y = 5 μg/mL < MPC@4 ≤ 20 μg/mL) | Z (Z = MPC@4 > 20 μg/mL) | X (X = MPC@1 ≤ 5 μg/mL) | Y (Y = 5 μg/mL < MPC@1 ≤ 20 μg/mL) | < 0.1 µM | X (X = Ki ≤ 0.1 μM) | X (X = Ki ≤ 0.1 μM) | X (X = Ki ≤ 0.1 μM) | < 0.1 µM |  |  | 
6 | CSc1ccc2c(c1C(=O)[O-])O[B-](O)(O)CC2.[Na+].[Na+] [Compound 36, Disodium; 4,4-dihydroxy-8-methylsulfanyl-5-oxa-4-boranuidabicyclo[4.4.0]deca-1(6),7,9-triene-7-carboxylate] | X (X = MPC@1 ≤ 5 μg/mL) | X (X = MPC@1 ≤ 5 μg/mL) | X (X = MPC@4 ≤ 5 μg/mL) | X (X = MPC@4 ≤ 5 μg/mL) | X (X = MPC@4 ≤ 5 μg/mL) | X (X = MPC@4 ≤ 5 μg/mL) | X (X = MPC@4 ≤ 5 μg/mL) | X (X = MPC@4 ≤ 5 μg/mL) | Y (Y = 5 μg/mL < MPC@4 ≤ 20 μg/mL) | Y (Y = 5 μg/mL < MPC@4 ≤ 20 μg/mL) | Y (Y = 5 μg/mL < MPC@1 ≤ 20 μg/mL) | X (X = MPC@1 ≤ 5 μg/mL) | < 0.1 µM |  | X (X = Ki ≤ 0.1 μM) | X (X = Ki ≤ 0.1 μM) |  | X (key: X = Ki ≤ 0.1 μM; Y = 0.1 μM < Ki ≤ 1 μM; Z = Ki > 1 μM) | < 0.1 µM | 
